This assay deals with menin protein (Homo sapiens (Human), UniProt O00255). Description: biochemical. In kind it is binding. The note with it: FP competitive binding; menin protein 4 nM, FAM-MM2 probe 2 nM; read-out: Menin Binding Affinity IC50. In outline:
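Test compounds displaced FAM-MM2 (2 nM) from 4 nM menin after 30 min equilibration at room temperature in PBS buffer containing bovine γ-globulin, 4% DMSO and Triton X-100. Binding was followed by fluorescence polarization. Competition curves were fitted by nonlinear regression to give IC50 and Ki.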

pIC50: −log10 of the molar value.

For orientation: pIC50 means −log10 of the IC50, conventionally taken in molar units.

Sequence of menin protein (O00255 whole entry): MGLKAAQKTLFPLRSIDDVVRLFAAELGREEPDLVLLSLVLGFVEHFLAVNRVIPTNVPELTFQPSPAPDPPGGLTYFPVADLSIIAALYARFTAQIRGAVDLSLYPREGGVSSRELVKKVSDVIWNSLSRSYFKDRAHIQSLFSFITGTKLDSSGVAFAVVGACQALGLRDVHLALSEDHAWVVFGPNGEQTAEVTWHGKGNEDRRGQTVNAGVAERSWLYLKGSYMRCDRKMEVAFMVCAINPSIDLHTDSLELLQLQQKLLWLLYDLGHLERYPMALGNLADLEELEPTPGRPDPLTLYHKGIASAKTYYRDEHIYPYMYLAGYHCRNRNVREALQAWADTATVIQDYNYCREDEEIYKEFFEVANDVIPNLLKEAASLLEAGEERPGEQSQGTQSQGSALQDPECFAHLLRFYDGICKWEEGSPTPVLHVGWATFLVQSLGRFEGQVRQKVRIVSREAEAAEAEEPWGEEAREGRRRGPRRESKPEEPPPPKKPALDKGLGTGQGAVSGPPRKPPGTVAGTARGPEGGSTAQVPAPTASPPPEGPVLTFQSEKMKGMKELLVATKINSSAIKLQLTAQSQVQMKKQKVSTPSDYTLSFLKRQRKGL

`CNC(=O)O[C@@H]1CCC[C@H]1C(C#N)(c1ccccc1)C1CCN(CC2CN(c3ccc(C(=O)OC)cc3)C2)CC1` (mixture of isomers) [compound 374, methyl rac-4-(3-((4-(cyano((1S,2R)-2-((methylcarbamoyl)oxy)cyclopentyl)(phenyl)methyl)piperidin-1-yl)methyl)azetidin-1-yl)benzoate]: the pIC50 was 5.33.
For the compound `N#CC(c1ccccc1)(C1CCN(CC2CN(c3ccc(S(=O)(=O)c4ccncc4)cc3)C2)CC1)[C@H]1CCC[C@@H]1CCO` (mixture of isomers) [compound 342, rac-2-((1S,2R)-2-(2-hydroxyethyl)cyclopentyl)-2-phenyl-2-(1-((1-(4-(pyridin-4-ylsulfonyl)phenyl)azetidin-3-yl)methyl)piperidin-4-yl)acetonitrile], the pIC50 was 6.05.
Turning to `N#CC(c1ccccc1)(C1CCCC1)C1CCN(CCCOc2ccc(S(=O)(=O)c3ccccc3)cc2)CC1` (stereo not drawn) [compound 126, 2-cyclopentyl-2-phenyl-2-(1-(3-(4-(phenylsulfonyl)phenoxy)propyl)piperidin-4-yl)acetonitrile], the negative-log IC50 (pIC50) is 4.23.
Turning to `CC(=O)N1CCCCC1C1(C2CCN(CCCOc3ccc(C#N)cc3)CC2)CN(C)Cc2ccccc21` (stereo not drawn) [compound 297, 4-(3-(4-(4-(1-acetylpiperidin-2-yl)-2-methyl-1,2,3,4-tetrahydroisoquinolin-4-yl)piperidin-1-yl)propoxy)benzonitrile], the pIC50 is 5.68.
The figure for `CCS(=O)(=O)c1ccc(N2CC(C(=O)N3CCC(C4(C5CCCC5)NCCc5c(F)cccc54)CC3)C2)cc1` (stereo not drawn) [compound 116, (4-(1-cyclopentyl-5-fluoro-1,2,3,4-tetrahydroisoquinolin-1-yl)piperidin-1-yl)(1-(4-(ethylsulfonyl)phenyl)azetidin-3-yl)methanone] is 5.22; for `CCCC(C)C1(C2CCN(CCCOc3ccc(C#N)cc3)CC2)NCCc2ccccc21` (stereo not drawn) [compound 245, 4-(3-(4-(1-(pentan-2-yl)-1,2,3,4-tetrahydroisoquinolin-1-yl)piperidin-1-yl)propoxy)benzonitrile] it is 5.48.
Take `CC(=O)O[C@H]1CCC[C@@H]1C(C#N)(c1ccccc1F)C1CCN(CC2CN(c3ccc(S(=O)(=O)C4CC4)cc3)C2)CC1` (mixture of isomers) [compound 310, rac-(1S,2R)-2-(cyano(1-((1-(4-(cyclopropylsulfonyl)phenyl)azetidin-3-yl)methyl)piperidin-4-yl)(2-fluorophenyl)methyl) cyclopentyl acetate]: the pIC50 is 7.35.
With `N#Cc1cc2cc(CN3CCC(CC4(C5CCCC5)NCCc5ccccc54)CC3)ccc2[nH]1` (stereo not drawn) [compound 112, 5-((4-((1-cyclopentyl-1,2,3,4-tetrahydroisoquinolin-1-yl)methyl)piperidin-1-yl)methyl)-1H-indole-2-carbonitrile], the negative logarithm of the IC50 (pIC50) was 4.38.
As to `N#Cc1ccc(OCCCN2CCC(C3(C4CCCC4)CNC(=O)c4ccccc43)CC2)cc1` (stereo not drawn) [compound 21, 4-(3-(4-(4-cyclopentyl-1-oxo-1,2,3,4-tetrahydroisoquinolin-4-yl)piperidin-1-yl)propoxy)benzonitrile], the negative logarithm of the IC50 (pIC50) was 5.96.
For the compound `N#Cc1ccc(OCCCN2CCC(C3(C4CCCC4)NCCc4c(F)cccc43)CC2)cc1` (stereo not drawn) [compound 29, 4-(3-(4-(1-cyclopentyl-5-fluoro-1,2,3,4-tetrahydroisoquinolin-1-yl)piperidin-1-yl)propoxy)benzonitrile], the pIC50 was 7.04.
As for `N#CC(c1ccccc1)(C1CCN(CC2CN(c3ccc(S(=O)(=O)c4ccncc4)cc3)C2)CC1)[C@@H]1CCC[C@H]1OC(=O)C1CCC1` (mixture of isomers) [compound 208, rac-(1R,2S)-2-(cyano(phenyl)(1-((1-(4-(pyridin-4-ylsulfonyl)phenyl)azetidin-3-yl)methyl)piperidin-4-yl)methyl)cyclopentyl cyclobutanecarboxylate], the pIC50 was 6.36.
`CNC(=O)O[C@@H]1CCC[C@H]1C(Cn1ccnc1)(c1ccccc1)C1CCN(CC2CN(c3ccc(S(=O)(=O)c4ccccc4)cc3)C2)CC1` (mixture of isomers) [compound 237, rac-(1R,2S)-2-(2-(1H-imidazol-1-yl)-1-phenyl-1-(1-((1-(4-(phenylsulfonyl)phenyl)azetidin-3-yl)methyl)piperidin-4-yl)ethyl)cyclopentyl methylcarbamate]: the pIC50 was 7.38.
Consider `N#Cc1ccc(OCCCN2CCC(C3NCCc4ccccc43)CC2)cc1` (stereo not drawn) [compound 305, 4-(3-(4-(1,2,3,4-tetrahydroisoquinolin-1-yl)piperidin-1-yl)propoxy)benzonitrile], for which the pIC50 is 4.38.
On to `N#Cc1ccc(OCCCN2CCC(C3(C4CCCC4)NCCc4cc(F)ccc43)CC2)cc1` (stereo not drawn) [compound 30, 4-(3-(4-(1-cyclopentyl-6-fluoro-1,2,3,4-tetrahydroisoquinolin-1-yl)piperidin-1-yl)propoxy)benzonitrile], for which the pIC50 was 6.36.
`CC(C)(C)S(=O)(=O)c1ccc(N2CC(CN3CCC(C4(C5CCCC5)NCCc5ccccc54)CC3)C2)cc1` (stereo not drawn) [compound 87, 1-(1-((1-(4-(tert-butylsulfonyl)phenyl)azetidin-3-yl)methyl)piperidin-4-yl)-1-cyclopentyl-1,2,3,4-tetrahydroisoquinoline]: the pIC50 is 6.91.
In the case of `O=S(=O)(c1ccncc1)c1ccc(N2CC(CN3CCC(C4(C5CCCC5)CN(CCN5CCOCC5)Cc5ccccc54)CC3)C2)cc1` (stereo not drawn) [compound 54, 4-(2-(4-cyclopentyl-4-(1-((1-(4-(pyridin-4-ylsulfonyl)phenyl)azetidin-3-yl)methyl)piperidin-4-yl)-3,4-dihydroisoquinolin-2(1H)-yl)ethyl)morpholine], the negative-log IC50 (pIC50) was 7.96.
The figure for `c1ccc2c(c1)CCNC2(CC1CCNCC1)C1CCCC1` (stereo not drawn) [compound 107, 1-cyclopentyl-1-(piperidin-4-ylmethyl)-1,2,3,4-tetrahydroisoquinoline] is 3.52; for `CO[C@@H]1CCC[C@@H]1C(C#N)(c1ccccc1)C1CCN(CCCOc2ccc(C#N)cc2)CC1` (mixture of isomers) [compound 177, rac-4-(3-(4-(cyano((1R,2R)-2-methoxycyclopentyl)(phenyl)methyl)piperidin-1-yl)propoxy)benzonitrile] it is 5.44.
The figure for `CO[C@@H]1CCC[C@H]1C1(C2CCN(CCCOc3ccc(C#N)cc3)CC2)CN(C)Cc2ccccc21` (mixture of isomers) [compound 326, rac-4-(3-(4-(4-((1S,2R)-2-methoxycyclopentyl)-2-methyl-1,2,3,4-tetrahydroisoquinolin-4-yl)piperidin-1-yl)propoxy)benzonitrile] is 5.57; for `CN(C)C(=O)N[C@@H]1CCC[C@H]1C(Cn1ccnc1)(c1ccccc1)C1CCN(CC2CN(c3ccc(S(=O)(=O)c4cnn(C)c4)cc3)C2)CC1` (mixture of isomers) [compound 377, rac-3-((1R,2S)-2-(2-(1H-imidazol-1-yl)-1-(1-((1-(4-((1-methyl-1H-pyrazol-4-yl)sulfonyl)phenyl)azetidin-3-yl)methyl)piperidin-4-yl)-1-phenylethyl)cyclopentyl)-1,1-dimethylurea] it is 5.95.
As to `N#Cc1ccc(OCCCN2CCC(CC3(C4CCCC4)NCCc4ccccc43)CC2)cc1` (stereo not drawn) [compound 104, 4-(3-(4-((1-cyclopentyl-1,2,3,4-tetrahydroisoquinolin-1-yl)methyl)piperidin-1-yl)propoxy)benzonitrile], the negative-log IC50 (pIC50) is 4.49.
